Data: paper PMC10518257 (Nature Cancer, 2023)
Where “and” joins values, the source holds several entries; their conditions need not be identical. Equal values may be shown once. Read-outs that look alike come from different tables or passages of the source.

Columns and labels:
Ba/F3-CCDC6::RET = assay: Growth inhibition assay in Ba/F3 cells (CellTiter-Glo, 72 h); format: cell-based
Ba/F3-RET^M918T = assay: as above; format: cell-based; details: Mus musculus, BaF3, 72 h, read-out: GI50 value (Mean ± SD), Ba/F3-RET^M918T, CellTiter-Glo, 72 h
[1] = test system: Ba/F3 cells expressing KIF5B–RET^G810S; assay: as above; format: cell-based; details: replicate Sets 1-3
[2] = test system: Ba/F3 cells expressing KIF5B–RET^V804M; assay: as above; format: cell-based; details: replicate sets
[3] = test system: LUAD-0002AS1 cells (KIF5B::RET); assay: Dose-response western blotting, EC50 for inhibition of protein phosphorylation; format: cell-based; details: Homo sapiens, LUAD-0002AS1, 2 h, densitometry
TT cells (RET C634W) = assay: as above; format: cell-based; details: Homo sapiens
HBECp53-EV cells = assay: Growth inhibition (alamarBlue, 96 h); format: cell-based, human; details: for raw viability signal (Source Data Fig. 3b-c): HBEC-EV, replicate sets
ECLC5B cells = assay: Growth inhibition (alamarBlue, 96 h); format: cell-based, human; details: for raw viability signal (Source Data Fig. 3b-c): ECLC5B, replicates
[4] = test system: Ba/F3 KIF5B–RET^G810R allograft tumors; assay: Subcutaneous allograft efficacy study; format: in vivo, BALB/c nude mice; details: in mm³ (unit assumed);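 further: mean tumor volume per dosing group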
[5] = test system: ECLC5 luciferase cells implanted intracranially; assay: Intracranial efficacy study; format: in vivo, NSG mice; details: for Luminescence Data: Fig. 8e ECLC5 intracranial, individual animals
[6] = Homo sapiens, 96 h, read-out: IC50 for Inhibition of Growth (95% CI)

For `COc1ccc(CN2C3CC2CN(c2ccc(-c4cc(OCC(C)(C)O)cn5ncc(C#N)c45)cn2)C3)cn1` [Selpercatinib], the GI50 (Ba/F3-CCDC6::RET; BaF3/CCDC6-RET, 72 h, read-out: GI50 value (Mean ± SD), Ba/F3-CCDC6::RET, CellTiter-Glo, 72 h) was 21.4 ± 7.5 nM, the GI50 (Ba/F3-CCDC6::RET; read-out: GI50 values, Ba/F3-CCDC6::RET, individual sets (replicate experiments)) was 13 nM and 27.4 nM and the GI50 (Ba/F3-RET^M918T) was 1.24 ± 0.78 nM. The GI50 ([1]; Ba/3-KIF5B-RET-G810S) was 182 nM and 173 nM, the GI50 ([1]; Mus musculus, BaF3, Ba/3-KIF5B-RET-G810S) was 143 nM and the GI50 ([2]; Ba/3-KIF5B-RET-V804M) was 36.4 nM and 32.9 nM. It also gave a GI50 ([2]; Mus musculus, BaF3, Ba/3-KIF5B-RET-V804M) of 30.6 nM, an EC50 ([3]; read-out: EC50 for Inhibition of Protein Phosphorylation (95% CI), AKT S473) of 2 nM and an EC50 ([3]; read-out: EC50 for Inhibition of Protein Phosphorylation (95% CI), ERK1/2 T202/Y204) of 1.5 nM. It also gave an EC50 ([3]; read-out: EC50 for Inhibition of Protein Phosphorylation (95% CI), MEK1/2 S217/S221) of 1.3 nM, an EC50 ([3]; read-out: EC50 for Inhibition of Protein Phosphorylation (95% CI), P70 RSK T421/S424) of 1.4 nM and an EC50 ([3]; read-out: EC50 for Inhibition of Protein Phosphorylation (95% CI), RET Y905) of 0.4 nM. It also gave an EC50 ([3]; read-out: EC50 for Inhibition of Protein Phosphorylation (95% CI), S6RP S235/S236) of 0.5 nM, an EC50 (TT cells (RET C634W); read-out: EC50 for Inhibition of Protein Phosphorylation (95% CI), AKT S473, 2 h, densitometry) of 1.9 nM and an EC50 (TT cells (RET C634W); read-out: EC50 for Inhibition of Protein Phosphorylation (95% CI), ERK1/2 T202/Y204, 2 h, densitometry) of 0.2 nM. It also gave an EC50 (TT cells (RET C634W); read-out: EC50 for Inhibition of Protein Phosphorylation (95% CI), MEK1/2 S217/S221, 2 h, densitometry) of 1.9 nM, an EC50 (TT cells (RET C634W); read-out: EC50 for Inhibition of Protein Phosphorylation (95% CI), P70 RSK T421/S424, 2 h, densitometry) of 1.7 nM and an EC50 (TT cells (RET C634W); read-out: EC50 for Inhibition of Protein Phosphorylation (95% CI), RET Y905, 2 h, densitometry) of 11.8 nM. For the same compound, the EC50 (TT cells (RET C634W); read-out: EC50 for Inhibition of Protein Phosphorylation (95% CI), S6RP S235/S236, 2 h, densitometry) was 0.6 nM, the “raw viability signal (Source Data Fig. 3b-c)” value (shortened to “raw viability signal”) (HBECp53-EV cells; 0.01 nM) was 19116.4 (2×) and 30437.1 and the “raw viability signal” value (HBECp53-EV cells; 0.1 nM) was 18667.6 (2×) and 30340.4. For the same compound, the “raw viability signal” value (HBECp53-EV cells; 1 nM) was 19461.2 (2×) and 29511.3, the “raw viability signal” value (HBECp53-EV cells; 10 nM) was 19276.9 (2×) and 28618.6 and the “raw viability signal” value (HBECp53-EV cells; 100 nM) was 19331.4 (2×) and 28192.3. For the same compound, the “raw viability signal” value (HBECp53-EV cells; 1000 nM) was 18208.7 (2×) and 25648.6, the “raw viability signal” value (HBECp53-EV cells; 10000 nM) was 8503.33 and the IC50 (HBECp53-EV cells; [6]) was 11400 nM. For the same compound, the “raw viability signal” value (ECLC5B cells; 0.01 nM) was 10363.9 and 7402.21 and 18274, the “raw viability signal” value (ECLC5B cells; 0.1 nM) was 11026.5 and 8834.98 and 20243.9 and the “raw viability signal” value (ECLC5B cells; 1 nM) was 10668.5 and 7252.95 and 17721.9. For the same compound, the “raw viability signal” value (ECLC5B cells; 10 nM) was 3598.88 and 1351.95 and 6402.34, the “raw viability signal” value (ECLC5B cells; 100 nM) was 3342.11 and 1356.99 and 4729.16 and the “raw viability signal” value (ECLC5B cells; 1000 nM) was 2886.96 and 1354.63 and 4277.75. For the same compound, the “raw viability signal” value (ECLC5B cells; 10000 nM) was 1612.7 and 1276.67 and 2944.43, the IC50 (ECLC5B cells; [6]) was 5 nM and the “Tumor Volume Mean” value ([4]; Fig. 7c Ba/F3-KIF5B::RET G810R, selpercatinib 10 mg/kg BID, day 1) was 153.47. The “Tumor Volume Mean” value ([4]; Fig. 7c Ba/F3-KIF5B::RET G810R, selpercatinib 10 mg/kg BID, day 4) was 195.84, the “Tumor Volume Mean” value ([4]; Fig. 7c Ba/F3-KIF5B::RET G810R, selpercatinib 10 mg/kg BID, day 8) was 432.66 and the “Tumor Volume Mean” value ([4]; Fig. 7c Ba/F3-KIF5B::RET G810R, selpercatinib 10 mg/kg BID, day 11) was 585.46. For the same compound, the “Tumor Volume Mean” value ([4]; Fig. 7c Ba/F3-KIF5B::RET G810R, selpercatinib 10 mg/kg BID, day 15) was 999.76, the “Tumor Volume Mean” value ([4]; Fig. 7d Ba/F3-KIF5B::RET G810R, selpercatinib 30 mg/kg BID, day 1) was 157.6 and the “Tumor Volume Mean” value ([4]; Fig. 7d Ba/F3-KIF5B::RET G810R, selpercatinib 30 mg/kg BID, day 4) was 307.7. The “Tumor Volume Mean” value ([4]; Fig. 7d Ba/F3-KIF5B::RET G810R, selpercatinib 30 mg/kg BID, day 8) was 440.3, the “Tumor Volume Mean” value ([4]; Fig. 7d Ba/F3-KIF5B::RET G810R, selpercatinib 30 mg/kg BID, day 11) was 551.9 and the “Tumor Volume Mean” value ([4]; Fig. 7d Ba/F3-KIF5B::RET G810R, selpercatinib 30 mg/kg BID, day 15) was 795.7. The median survival time ([5]; 10 mg per kg BID) was 99 d of treatment, the “Area Under Curve Mean” value ([5]; Fig. 8e (middle panel) ECLC5 luminescence, 10 mg/kg BID) was 27186332000 and the “Luminescence Data” value ([5]; 10 mg/kg BID, treatment day 0 (=1)) was 1. For the same compound, the “Luminescence Data” value ([5]; 10 mg/kg BID, treatment day 5, day 0 = 1, 10 mg/kg) was 1.5865 and 1.821 and 1.255 and 0.4814 and 3.25 and 0.8886, the “Luminescence Data” value ([5]; 10 mg/kg BID, treatment day 12, day 0 = 1, 10 mg/kg) was 3.019 and 2.275 and 2.308 and 0.7742 and 2.674 and 1.142 and the “Luminescence Data” value ([5]; 10 mg/kg BID, treatment day 18, day 0 = 1, 10 mg/kg) was 4.468 and 13.8627 and 3.677 and 17.2275 and 4.61 and 2.3303. The “Luminescence Data” value ([5]; 10 mg/kg BID, treatment day 26, day 0 = 1, 10 mg/kg) was 4.838 and 8.783 and 2.8 and 90.8154 and 2.049 and 2.4586, the “Luminescence Data” value ([5]; 10 mg/kg BID, treatment day 33, day 0 = 1, 10 mg/kg) was 19.3932 and 14.9637 and 7.347 and 180.944 and 3.353 and 5.483 and the “Luminescence Data” value ([5]; 10 mg/kg BID, treatment day 40, day 0 = 1, 10 mg/kg) was 20.6751 and 16.1418 and 17.1097 and 476.137 and 5.8 and 4.798.
